# Tested on: MV-4-11 cells
# Assay: Gene expression microarray analysis (Affymetrix PrimeView) and GSEA
# Format: cell-based, human
# Parameters: RFU PODN (11730768_x_at) / Fold change /veh PODN (11730768_x_at) / RFU LINC00158 (11744669_a_at) / Fold change /veh LINC00158 (11744669_a_at) / RFU DUSP10 (11751237_a_at) / Fold change /veh DUSP10 (11751237_a_at) / RFU ID3 (11757404_x_at) / Fold change /veh ID3 (11757404_x_at) / RFU PLEKHG5 (11737974_s_at) / Fold change /veh PLEKHG5 (11737974_s_at) / RFU LRRC4B (11730491_at) / Fold change /veh LRRC4B (11730491_at) / RFU GIMAP4 (11747438_a_at) / Fold change /veh GIMAP4 (11747438_a_at) / RFU KRT8 (11758183_x_at) / Fold change /veh KRT8 (11758183_x_at) / RFU CNN1 (11734310_a_at) / Fold change /veh CNN1 (11734310_a_at) / RFU VPS37D (11726825_at) / Fold change /veh VPS37D (11726825_at) / RFU C10orf10 (11716522_x_at) / Fold change /veh C10orf10 (11716522_x_at) / RFU KIR2DL2 /// KIR2DL4 /// KIR2DL5A /// KIR2DL5B /// KIR2DS1 /// KIR2DS2 /// KIR2DS3 /// KIR2DS4 /// KIR3DL3 /// KIR3DL3 /// KIR3DS1 (11738374_at) / Fold change /veh KIR2DL2 /// KIR2DL4 /// KIR2DL5A /// KIR2DL5B /// KIR2DS1 /// KIR2DS2 /// KIR2DS3 /// KIR2DS4 /// KIR3DL3 /// KIR3DL3 /// KIR3DS1 (11738374_at) / RFU C1QL1 (11718748_at) / Fold change /veh C1QL1 (11718748_at) / RFU TMPRSS4 (11747572_a_at) / Fold change /veh TMPRSS4 (11747572_a_at) / RFU HAMP (11756126_x_at) / Fold change /veh HAMP (11756126_x_at) / RFU RNFT2 (11725882_a_at) / Fold change /veh RNFT2 (11725882_a_at) / RFU NR4A2 (11747474_a_at) / Fold change /veh NR4A2 (11747474_a_at) / RFU ABCC12 (11746883_a_at) / Fold change /veh ABCC12 (11746883_a_at) / RFU TMEM136 (11760407_x_at) / Fold change /veh TMEM136 (11760407_x_at) / RFU CLDN22 /// WWC2 (11732394_at) / Fold change /veh CLDN22 /// WWC2 (11732394_at) / RFU HLA-DPB1 (11760878_x_at) / Fold change /veh HLA-DPB1 (11760878_x_at) / RFU SPINT1 (11716480_a_at) / Fold change /veh SPINT1 (11716480_a_at) / RFU GAP43 (11754022_s_at) / Fold change /veh GAP43 (11754022_s_at) / RFU A4GNT (11735810_at) / Fold change /veh A4GNT (11735810_at) / RFU PRB3 (11715151_x_at) / Fold change /veh PRB3 (11715151_x_at) / RFU TUBB4B (11761932_at) / Fold change /veh TUBB4B (11761932_at) / RFU CAPN14 (11732068_a_at) / Fold change /veh CAPN14 (11732068_a_at) / RFU TMCC2 (11721928_a_at) / Fold change /veh TMCC2 (11721928_a_at) / RFU IRGQ (11745062_a_at) / Fold change /veh IRGQ (11745062_a_at) / RFU FAM174B (11720279_a_at) / Fold change /veh FAM174B (11720279_a_at) / RFU TMPRSS4 (11748680_a_at) / Fold change /veh TMPRSS4 (11748680_a_at) / RFU FAM212B (11763350_a_at) / Fold change /veh FAM212B (11763350_a_at) / RFU PLEKHG5 (11743358_a_at) / Fold change /veh PLEKHG5 (11743358_a_at) / RFU ZSCAN30 (11745921_a_at) / Fold change /veh ZSCAN30 (11745921_a_at) / RFU CMKLR1 (11741424_a_at) / Fold change /veh CMKLR1 (11741424_a_at) / RFU LOC101060620 /// MAPK8IP1 (11723275_at) / Fold change /veh LOC101060620 /// MAPK8IP1 (11723275_at) / RFU SPTSSB (11747773_x_at) / Fold change /veh SPTSSB (11747773_x_at) / RFU PRSS12 (11739890_at) / Fold change /veh PRSS12 (11739890_at) / RFU BIN1 (11741810_x_at) / Fold change /veh BIN1 (11741810_x_at) / RFU WNT11 (11732464_a_at) / Fold change /veh WNT11 (11732464_a_at) / RFU C10orf10 (11716521_a_at) / Fold change /veh C10orf10 (11716521_a_at) / RFU C5orf56 (11738089_at) / Fold change /veh C5orf56 (11738089_at) / RFU CYB561 (11721691_x_at) / Fold change /veh CYB561 (11721691_x_at) / RFU ANKRD19P (11752326_a_at) / Fold change /veh ANKRD19P (11752326_a_at) / RFU OR2T12 /// OR2T33 /// OR2T8 (11738714_s_at) / Fold change /veh OR2T12 /// OR2T33 /// OR2T8 (11738714_s_at) / RFU VCAN (11748164_a_at) / Fold change /veh VCAN (11748164_a_at) / RFU JSRP1 (11732532_at) / Fold change /veh JSRP1 (11732532_at) / RFU KRTAP10-11 (11738290_x_at) / Fold change /veh KRTAP10-11 (11738290_x_at) / RFU MYO3A (11730013_a_at) / Fold change /veh MYO3A (11730013_a_at) / RFU EBF3 (11725865_a_at) / Fold change /veh EBF3 (11725865_a_at) / RFU CAMK2N1 (11719241_x_at) / Fold change /veh CAMK2N1 (11719241_x_at) / RFU C5orf56 (11738088_a_at) / Fold change /veh C5orf56 (11738088_a_at) / RFU OLFML3 (11715873_a_at) / Fold change /veh OLFML3 (11715873_a_at) / RFU LOC100653217 /// NTM (11731650_a_at) / Fold change /veh LOC100653217 /// NTM (11731650_a_at) / RFU MAPK11 (11762145_a_at) / Fold change /veh MAPK11 (11762145_a_at) / RFU FIZ1 (11724087_x_at) / Fold change /veh FIZ1 (11724087_x_at) / RFU OASL (11726364_x_at) / Fold change /veh OASL (11726364_x_at) / RFU SOX15 (11748057_x_at) / Fold change /veh SOX15 (11748057_x_at) / RFU CD79A (11719716_a_at) / Fold change /veh CD79A (11719716_a_at) / RFU HIST1H1D (11736915_at) / Fold change /veh HIST1H1D (11736915_at) / RFU CASKIN2 (11723855_a_at) / Fold change /veh CASKIN2 (11723855_a_at) / RFU LOC730098 (11760151_x_at) / Fold change /veh LOC730098 (11760151_x_at) / RFU OR4N2 (11742367_at) / Fold change /veh OR4N2 (11742367_at) / RFU PRRT2 (11749266_a_at) / Fold change /veh PRRT2 (11749266_a_at) / RFU SNX32 (11753110_a_at) / Fold change /veh SNX32 (11753110_a_at) / RFU CDHR5 (11726645_a_at) / Fold change /veh CDHR5 (11726645_a_at) / RFU RCAN1 (11760418_a_at) / Fold change /veh RCAN1 (11760418_a_at) / RFU FAM167A (11723789_a_at) / Fold change /veh FAM167A (11723789_a_at) / RFU FAM26E (11764081_at) / Fold change /veh FAM26E (11764081_at) / RFU ISYNA1 (11749810_s_at) / Fold change /veh ISYNA1 (11749810_s_at) / RFU ACY1 (11761880_at) / Fold change /veh ACY1 (11761880_at) / RFU 11764098_at / Fold change /veh 11764098_at / RFU SAMD14 (11745864_x_at) / Fold change /veh SAMD14 (11745864_x_at) / RFU NPB (11741838_a_at) / Fold change /veh NPB (11741838_a_at) / RFU TMPRSS6 (11731388_a_at) / Fold change /veh TMPRSS6 (11731388_a_at) / RFU KRTAP10-2 (11738614_at) / Fold change /veh KRTAP10-2 (11738614_at) / RFU ARHGAP8 /// PRR5-ARHGAP8 (11727945_x_at) / Fold change /veh ARHGAP8 /// PRR5-ARHGAP8 (11727945_x_at) / RFU KRTAP5-7 /// NADSYN1 (11734609_at) / Fold change /veh KRTAP5-7 /// NADSYN1 (11734609_at) / RFU RASL12 (11751679_a_at) / Fold change /veh RASL12 (11751679_a_at) / RFU CDKN2B (11736163_a_at) / Fold change /veh CDKN2B (11736163_a_at) / RFU PRF1 (11729649_at) / Fold change /veh PRF1 (11729649_at) / RFU, ZNF638 /// ZNF638-IT1 / Fold change vs veh, ZNF638 /// ZNF638-IT1 / RFU, PANK3 / Fold change vs veh, PANK3 / RFU, SH3YL1 / Fold change vs veh, SH3YL1 / RFU, ZEB2 / Fold change vs veh, ZEB2 / RFU, NRIP1 / Fold change vs veh, NRIP1 / RFU, PTTG1IP / Fold change vs veh, PTTG1IP / RFU, CAPN2 / Fold change vs veh, CAPN2 / RFU, MED14 / Fold change vs veh, MED14 / RFU, SNORA58 / Fold change vs veh, SNORA58 / RFU, C1orf63 / Fold change vs veh, C1orf63 / RFU, LRRFIP1 / Fold change vs veh, LRRFIP1 / RFU, NDUFAF7 / Fold change vs veh, NDUFAF7 / RFU, SLC12A2 / Fold change vs veh, SLC12A2 / RFU, IBTK / Fold change vs veh, IBTK / RFU, ESF1 / Fold change vs veh, ESF1 / Fold change vs veh, TMEM50B / RFU, TAOK1 / Fold change vs veh, TAOK1 / RFU, ACBD3 / Fold change vs veh, ACBD3 / RFU, TMA16 / Fold change vs veh, TMA16 / RFU, RWDD3 / Fold change vs veh, RWDD3 / RFU, BCAT1 / Fold change vs veh, BCAT1 / RFU, EDEM3 / Fold change vs veh, EDEM3 / RFU, TMEM33 / Fold change vs veh, TMEM33 / RFU, WDR75 / Fold change vs veh, WDR75 / RFU, AHCTF1 / Fold change vs veh, AHCTF1 / RFU, TFRC / Fold change vs veh, TFRC / RFU, ZDHHC17 / Fold change vs veh, ZDHHC17 / RFU, NOM1 / Fold change vs veh, NOM1 / RFU, ARL8B / Fold change vs veh, ARL8B / RFU, ZBTB11 / Fold change vs veh, ZBTB11 / RFU, TAMM41 / Fold change vs veh, TAMM41 / RFU, KIAA1704 /// LOC100996395 / Fold change vs veh, KIAA1704 /// LOC100996395 / RFU, ING1 / Fold change vs veh, ING1 / RFU, TRMT61B / Fold change vs veh, TRMT61B / RFU, FUBP3 / Fold change vs veh, FUBP3 / RFU, TP53 / Fold change vs veh, TP53 / RFU, TNKS2 / Fold change vs veh, TNKS2 / RFU, ZFP14 / Fold change vs veh, ZFP14 / RFU, ACTR2 / Fold change vs veh, ACTR2 / RFU, PPP3R1 / Fold change vs veh, PPP3R1 / RFU, PIK3R1 / Fold change vs veh, PIK3R1 / RFU, HNRNPA1 / Fold change vs veh, HNRNPA1 / RFU, RNF170 / Fold change vs veh, RNF170 / RFU, ZNF28 / Fold change vs veh, ZNF28 / RFU, RNGTT / Fold change vs veh, RNGTT / RFU, OGT / Fold change vs veh, OGT / RFU, BRD1 / Fold change vs veh, BRD1 / RFU, MARS / Fold change vs veh, MARS / RFU, ZNF655 / Fold change vs veh, ZNF655 / RFU, FAHD1 / Fold change vs veh, FAHD1 / RFU, BDP1 / Fold change vs veh, BDP1 / RFU, LRRCC1 / Fold change vs veh, LRRCC1 / RFU, ARID1A / Fold change vs veh, ARID1A / RFU, ZNF146 / Fold change vs veh, ZNF146 / RFU, ZNF330 / Fold change vs veh, ZNF330 / RFU, GPN3 / Fold change vs veh, GPN3 / RFU, C9orf123 / Fold change vs veh, C9orf123 / RFU, N4BP2L2 / Fold change vs veh, N4BP2L2 / RFU, ARFIP1 / Fold change vs veh, ARFIP1 / RFU, FAM179B / Fold change vs veh, FAM179B / RFU, BCL10 / Fold change vs veh, BCL10 / RFU, UHRF1BP1L / Fold change vs veh, UHRF1BP1L / RFU, BET1 / Fold change vs veh, BET1 / RFU, CNOT2 / Fold change vs veh, CNOT2 / RFU, ZNF268 / Fold change vs veh, ZNF268 / Fold change vs veh, ZNF507 / RFU, DGCR2 / Fold change vs veh, DGCR2 / RFU, WDSUB1 / Fold change vs veh, WDSUB1 / Fold change vs veh, HSP90B1 /// MIR3652 / RFU, ADSS / Fold change vs veh, ADSS / RFU, GK / Fold change vs veh, GK / RFU, ZNF148 / Fold change vs veh, ZNF148 / RFU, TAF9 / Fold change vs veh, TAF9 / RFU, SLC1A5 / Fold change vs veh, SLC1A5 / RFU, SLMO2 / Fold change vs veh, SLMO2 / RFU, ABCC4 / Fold change vs veh, ABCC4 / RFU, LOC101060439 /// RAP1B / Fold change vs veh, LOC101060439 /// RAP1B / RFU, RFX7 / Fold change vs veh, RFX7 / RFU, GTPBP10 / Fold change vs veh, GTPBP10 / RFU, CNEP1R1 / Fold change vs veh, CNEP1R1 / RFU, BIVM-ERCC5 /// ERCC5 / Fold change vs veh, BIVM-ERCC5 /// ERCC5 / RFU, ILF3 / Fold change vs veh, ILF3 / RFU 11762660_at / Fold change /veh 11762660_at / RFU VCAN (11757783_s_at) / Fold change /veh VCAN (11757783_s_at) / RFU DDX43 (11728927_at) / Fold change /veh DDX43 (11728927_at) / RFU KRT8 (11758188_x_at) / Fold change /veh KRT8 (11758188_x_at) / RFU NKD1 (11759106_at) / Fold change /veh NKD1 (11759106_at) / RFU SRD5A1 (11742802_a_at) / Fold change /veh SRD5A1 (11742802_a_at) / RFU TPSAB1 /// TPSB2 (11721975_s_at) / Fold change /veh TPSAB1 /// TPSB2 (11721975_s_at) / RFU GSTM3 (11746129_a_at) / Fold change /veh GSTM3 (11746129_a_at) / RFU IL23R (11737362_x_at) / Fold change /veh IL23R (11737362_x_at) / RFU TMEM51 (11727254_a_at) / Fold change /veh TMEM51 (11727254_a_at) / RFU PIWIL2 (11732686_x_at) / Fold change /veh PIWIL2 (11732686_x_at) / RFU ORM1 (11744905_x_at) / Fold change /veh ORM1 (11744905_x_at) / RFU CCDC152 (11743942_at) / Fold change /veh CCDC152 (11743942_at) / RFU ECM1 (11717891_a_at) / Fold change /veh ECM1 (11717891_a_at) / RFU IL23R (11748794_a_at) / Fold change /veh IL23R (11748794_a_at) / RFU TNFAIP8L3 (11732012_x_at) / Fold change /veh TNFAIP8L3 (11732012_x_at) / RFU MBOAT4 (11741988_at) / Fold change /veh MBOAT4 (11741988_at) / RFU 11764193_at / Fold change /veh 11764193_at / RFU TMEM53 (11763286_at) / Fold change /veh TMEM53 (11763286_at) / RFU MAGEB2 (11727129_at) / Fold change /veh MAGEB2 (11727129_at) / RFU TMEM200A (11744735_a_at) / Fold change /veh TMEM200A (11744735_a_at) / RFU CCDC152 (11751479_a_at) / Fold change /veh CCDC152 (11751479_a_at) / RFU FAM211A (11726209_a_at) / Fold change /veh FAM211A (11726209_a_at) / RFU RGS16 (11746705_a_at) / Fold change /veh RGS16 (11746705_a_at) / RFU VCAN (11755009_s_at) / Fold change /veh VCAN (11755009_s_at) / RFU RHOB (11743442_s_at) / Fold change /veh RHOB (11743442_s_at) / RFU RGS16 (11720943_a_at) / Fold change /veh RGS16 (11720943_a_at) / RFU RGS16 (11720944_at) / Fold change /veh RGS16 (11720944_at) / RFU, VPS4B / Fold change vs veh, VPS4B / RFU, CREB1 / Fold change vs veh, CREB1 / RFU, DNAJC13 / Fold change vs veh, DNAJC13 / RFU, GNAQ / Fold change vs veh, GNAQ / RFU, CDK5R1 / Fold change vs veh, CDK5R1 / RFU, ZRANB3 / Fold change vs veh, ZRANB3 / RFU, CUL4A / Fold change vs veh, CUL4A / RFU, CCNY / Fold change vs veh, CCNY / RFU, UFL1 / Fold change vs veh, UFL1 / RFU, COG3 / Fold change vs veh, COG3 / RFU, DIAPH2 / Fold change vs veh, DIAPH2 / RFU, SKA2 / Fold change vs veh, SKA2 / RFU, AFF3 / Fold change vs veh, AFF3 / RFU, LMF1 / Fold change vs veh, LMF1 / RFU, IPO11 / Fold change vs veh, IPO11 / RFU, DFFB / Fold change vs veh, DFFB / RFU, FOXP1 / Fold change vs veh, FOXP1 / RFU, CARD8 / Fold change vs veh, CARD8 / RFU, STRN3 / Fold change vs veh, STRN3 / RFU, ADK / Fold change vs veh, ADK / RFU, RASSF2 / Fold change vs veh, RASSF2 / RFU, WIPF1 / Fold change vs veh, WIPF1 / RFU, LARP1B / Fold change vs veh, LARP1B / RFU, RASA1 / Fold change vs veh, RASA1 / RFU, RB1 / Fold change vs veh, RB1 / RFU, PPFIA1 / Fold change vs veh, PPFIA1 / RFU, MAT2A / Fold change vs veh, MAT2A / RFU, CCT5 / Fold change vs veh, CCT5 / RFU, WDR92 / Fold change vs veh, WDR92 / RFU, CUX1 / Fold change vs veh, CUX1 / RFU, TTC7A / Fold change vs veh, TTC7A / RFU, TMEM135 / Fold change vs veh, TMEM135 / RFU, DEPTOR / Fold change vs veh, DEPTOR / RFU, CPM / Fold change vs veh, CPM / RFU, DNAJB6 / Fold change vs veh, DNAJB6 / RFU, CACNA2D3 / Fold change vs veh, CACNA2D3 / RFU, DTX4 / Fold change vs veh, DTX4 / RFU, TFCP2 / Fold change vs veh, TFCP2 / RFU, GMCL1 /// GMCL1P1 / Fold change vs veh, GMCL1 /// GMCL1P1 / RFU, AEBP2 / Fold change vs veh, AEBP2 / RFU, SNHG1 /// SNORD22 /// SNORD25 /// SNORD26 /// SNORD27 /// SNORD28 /// SNORD29 /// SNORD31 / Fold change vs veh, SNHG1 /// SNORD22 /// SNORD25 /// SNORD26 /// SNORD27 /// SNORD28 /// SNORD29 /// SNORD31 / Fold change (Aza/veh), C12orf56 (ProbeSet 11735607_a_at) / Fold change (ACY-1035/veh), C12orf56 (ProbeSet 11735607_a_at) / Fold change (Aza/veh), FGFR1OP (ProbeSet 11751329_s_at) / Fold change (ACY-1035/veh), FGFR1OP (ProbeSet 11751329_s_at) / Fold change (Aza/veh), VPS36 (ProbeSet 11739960_a_at) / Fold change (ACY-1035/veh), VPS36 (ProbeSet 11739960_a_at) / RFU SYPL1 (11715823_x_at) / Fold change /veh SYPL1 (11715823_x_at) / RFU IGFBP7 (11715501_s_at) / Fold change /veh IGFBP7 (11715501_s_at) / RFU REEP3 (11722064_at) / Fold change /veh REEP3 (11722064_at) / RFU IGLL1 (11728026_x_at) / Fold change /veh IGLL1 (11728026_x_at): dose or concentration left out as unconfirmed
# Conditions: MV-4-11 cells, 48 hours
compound,measurement,value
Nc1ncn([C@@H]2O[C@H](CO)[C@@H](O)[C@H]2O)c(=O)n1 [azacitidine],RFU VCAN (11757783_s_at),10.94 RFU

# From publication PMC5218480 (PLoS ONE, 2017)
